Consider 16 molecules from ChEMBL document CHEMBL3991601, “The target landscape of clinical kinase drugs” (Science, 2017).

A word on the Kd: it is a measure of binding affinity in units of concentration.

Test [1] addresses T1, Ras-related protein Rab-27A (Homo sapiens, UniProt P51159).
T1 sequence (P51159 whole entry): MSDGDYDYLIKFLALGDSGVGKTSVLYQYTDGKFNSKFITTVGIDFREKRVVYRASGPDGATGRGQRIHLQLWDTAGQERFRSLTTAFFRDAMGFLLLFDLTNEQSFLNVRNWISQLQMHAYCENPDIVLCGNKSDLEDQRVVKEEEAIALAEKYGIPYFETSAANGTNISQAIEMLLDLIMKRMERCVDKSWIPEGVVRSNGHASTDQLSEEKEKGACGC

The target of test [2] is T2, Cyclin-G-associated kinase (Homo sapiens, UniProt O14976).
T2 sequence (O14976 whole entry): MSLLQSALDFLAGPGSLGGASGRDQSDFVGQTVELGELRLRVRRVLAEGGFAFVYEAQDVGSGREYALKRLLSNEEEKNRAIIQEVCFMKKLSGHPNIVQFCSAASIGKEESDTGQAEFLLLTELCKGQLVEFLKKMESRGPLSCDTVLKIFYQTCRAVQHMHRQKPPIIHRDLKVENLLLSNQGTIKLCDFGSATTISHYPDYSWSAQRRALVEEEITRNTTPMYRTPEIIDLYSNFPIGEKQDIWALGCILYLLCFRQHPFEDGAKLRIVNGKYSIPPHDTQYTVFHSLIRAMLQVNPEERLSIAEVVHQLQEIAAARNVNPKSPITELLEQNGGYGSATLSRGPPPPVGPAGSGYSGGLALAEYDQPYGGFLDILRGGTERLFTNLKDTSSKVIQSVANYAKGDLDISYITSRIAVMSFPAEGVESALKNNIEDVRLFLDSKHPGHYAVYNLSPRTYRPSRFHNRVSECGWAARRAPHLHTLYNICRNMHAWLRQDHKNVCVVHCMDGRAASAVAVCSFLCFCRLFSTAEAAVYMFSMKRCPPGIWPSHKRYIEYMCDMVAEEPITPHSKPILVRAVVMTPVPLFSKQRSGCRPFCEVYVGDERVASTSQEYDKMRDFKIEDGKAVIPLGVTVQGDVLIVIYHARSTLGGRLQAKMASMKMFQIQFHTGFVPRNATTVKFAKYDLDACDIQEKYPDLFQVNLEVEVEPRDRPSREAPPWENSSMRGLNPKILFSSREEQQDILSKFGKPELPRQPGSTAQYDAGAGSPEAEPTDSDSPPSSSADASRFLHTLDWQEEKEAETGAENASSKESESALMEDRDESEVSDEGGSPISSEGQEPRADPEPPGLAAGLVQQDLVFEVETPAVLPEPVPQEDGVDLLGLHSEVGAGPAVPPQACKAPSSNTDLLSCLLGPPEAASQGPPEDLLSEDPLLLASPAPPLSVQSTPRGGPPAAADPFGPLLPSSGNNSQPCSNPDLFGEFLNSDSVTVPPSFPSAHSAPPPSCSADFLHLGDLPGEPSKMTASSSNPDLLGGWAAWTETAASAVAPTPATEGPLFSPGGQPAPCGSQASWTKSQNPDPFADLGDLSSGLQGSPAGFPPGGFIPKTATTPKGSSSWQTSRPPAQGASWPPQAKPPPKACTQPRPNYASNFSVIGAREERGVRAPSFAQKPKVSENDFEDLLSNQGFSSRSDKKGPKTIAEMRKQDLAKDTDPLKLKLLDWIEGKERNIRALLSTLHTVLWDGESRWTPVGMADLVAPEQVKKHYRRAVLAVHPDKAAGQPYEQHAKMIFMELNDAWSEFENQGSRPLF

In test [3] the target is T3, Activin receptor type-1 (Homo sapiens, UniProt Q04771).
T3 sequence (Q04771 whole entry): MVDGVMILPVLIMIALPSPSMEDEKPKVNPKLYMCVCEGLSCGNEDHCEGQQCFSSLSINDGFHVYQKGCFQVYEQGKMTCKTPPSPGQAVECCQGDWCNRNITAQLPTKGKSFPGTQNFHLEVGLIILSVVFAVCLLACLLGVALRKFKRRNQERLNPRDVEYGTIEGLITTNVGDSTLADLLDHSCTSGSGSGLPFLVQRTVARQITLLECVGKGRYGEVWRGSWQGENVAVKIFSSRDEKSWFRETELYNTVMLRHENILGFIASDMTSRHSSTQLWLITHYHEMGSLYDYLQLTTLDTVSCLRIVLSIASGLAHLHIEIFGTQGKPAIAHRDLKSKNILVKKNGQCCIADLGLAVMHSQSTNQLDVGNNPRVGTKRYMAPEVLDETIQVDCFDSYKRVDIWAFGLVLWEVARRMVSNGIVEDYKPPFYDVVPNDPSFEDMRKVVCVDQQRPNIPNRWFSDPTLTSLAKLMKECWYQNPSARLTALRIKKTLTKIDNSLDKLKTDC

For test [4], the target named is T4, Serine/threonine-protein kinase TAO1 (Homo sapiens, UniProt Q7L7X3).
T4 sequence (Q7L7X3 whole entry): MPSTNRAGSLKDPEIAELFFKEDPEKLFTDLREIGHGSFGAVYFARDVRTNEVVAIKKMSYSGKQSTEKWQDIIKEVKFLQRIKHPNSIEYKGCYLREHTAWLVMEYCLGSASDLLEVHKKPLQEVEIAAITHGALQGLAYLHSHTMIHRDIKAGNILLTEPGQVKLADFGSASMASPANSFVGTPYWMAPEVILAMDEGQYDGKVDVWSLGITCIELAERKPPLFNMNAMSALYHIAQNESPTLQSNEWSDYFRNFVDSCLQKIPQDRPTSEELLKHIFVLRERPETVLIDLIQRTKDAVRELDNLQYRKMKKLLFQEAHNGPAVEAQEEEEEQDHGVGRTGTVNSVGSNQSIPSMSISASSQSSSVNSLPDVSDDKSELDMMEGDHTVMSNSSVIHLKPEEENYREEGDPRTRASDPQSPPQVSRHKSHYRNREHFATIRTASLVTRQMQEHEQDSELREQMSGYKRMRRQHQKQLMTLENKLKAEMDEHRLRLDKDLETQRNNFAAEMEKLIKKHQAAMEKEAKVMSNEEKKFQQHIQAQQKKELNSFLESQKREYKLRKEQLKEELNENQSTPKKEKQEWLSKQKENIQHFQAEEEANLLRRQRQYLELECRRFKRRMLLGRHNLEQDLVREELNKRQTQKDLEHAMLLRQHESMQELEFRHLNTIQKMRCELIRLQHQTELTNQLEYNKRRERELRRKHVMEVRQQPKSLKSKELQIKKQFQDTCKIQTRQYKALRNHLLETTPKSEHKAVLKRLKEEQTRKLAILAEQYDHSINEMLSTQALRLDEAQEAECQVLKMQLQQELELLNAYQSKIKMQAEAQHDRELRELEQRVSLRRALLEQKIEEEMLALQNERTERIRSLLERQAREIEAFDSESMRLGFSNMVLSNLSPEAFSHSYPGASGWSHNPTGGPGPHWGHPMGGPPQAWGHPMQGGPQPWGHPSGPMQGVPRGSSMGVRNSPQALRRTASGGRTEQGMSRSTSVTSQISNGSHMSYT

Calls of active or inactive are those of the source. For most assays here, no stated cut-off is given here; in the data, actives have a measured Kd and inactives only a lower limit. Some results are limits rather than exact numbers.

As to `C=CC(=O)Nc1cc(Nc2nccc(-c3cn(C)c4ccccc34)n2)c(OC)cc1N(C)CCN(C)C` [OSIMERTINIB], the Kd in test [1], in test [2], in test [3] and in test [4] was > 30 µM (inactive) each time.

On to `Cn1cc(-c2[nH]c3cc(NC(=O)[C@H](N)C4CCCCC4)cc4c3c2C=NNC4=O)cn1`, for which the Kd was > 30 µM (inactive) in test [1], 0.023 µM (active) in test [2], > 30 µM (inactive) in test [3] and > 30 µM (inactive) in test [4].

In the case of `COCCN1CCN(Cc2ccc(-c3n[nH]c4c3C(=O)c3c(NC(=O)NN5CCOCC5)cccc3-4)cc2)CC1` [RGB-286638], the Kd in test [1] is > 30 µM (inactive); in test [2] it was 0.004 µM (active); in test [3], > 30 µM (inactive); in test [4], > 30 µM (inactive).

As to `C[C@@H]1COC(Nc2ccc3ncnc(Nc4ccc(OCc5nccs5)c(Cl)c4)c3c2)=N1` [VARLITINIB], the Kd in test [1], in test [2], in test [3] and in test [4] was > 30 µM (inactive) each time.

Regarding `O=C(NC[C@H](O)CO)c1ccncc1Nc1ccc(I)cc1F` [PIMASERTIB], the Kd in test [1], in test [2], in test [3] and in test [4] was > 30 µM (inactive) each time.

On to `CCc1cc2c(cc1N1CCC(N3CCOCC3)CC1)C(C)(C)c1[nH]c3cc(C#N)ccc3c1C2=O` [ALECTINIB], for which the Kd in test [1] was > 30 µM (inactive); in test [2] it was 0.259 µM (active); in test [3] it was > 30 µM (inactive); in test [4] it was > 30 µM (inactive).

Take `Cc1c(NC(=O)OC[C@@H]2COCCN2)cn2ncnc(Nc3ccc4c(cnn4Cc4cccc(F)c4)c3)c12` [AC-480]: the Kd in test [1], in test [2], in test [3] and in test [4] was > 30 µM (inactive) each time.

For the molecule `COc1cc(Nc2ncc(F)c(Nc3ccc4c(n3)N(COP(=O)(O)O)C(=O)C(C)(C)O4)n2)cc(OC)c1OC` [FOSTAMATINIB], the Kd in test [1], in test [2], in test [3] and in test [4] was > 30 µM (inactive) in each case.

On to `CC(C)CC(=O)Nc1[nH]nc2c1CN(C(=O)C1CCN(C)CC1)C2(C)C` [PHA-793887], for which the Kd in test [1], in test [2], in test [3] and in test [4] was > 30 µM (inactive) throughout.

On to `COc1cccc2cc(-c3nc([C@H]4CC[C@H](C(=O)O)CC4)n4ncnc(N)c34)[nH]c12` [OSI-027], for which the Kd in test [1], in test [2], in test [3] and in test [4] was > 30 µM (inactive) throughout.

`COc1ccc2c(OCc3nnc4ccc(-c5ccccc5)nn34)ccnc2c1` [AMG-208]: the Kd in test [1], in test [2], in test [3] and in test [4] was > 30 µM (inactive) each time.

As for `COc1cc2ncnc(Nc3ccc(F)c(Cl)c3)c2cc1NC(=O)/C=C/CN1CCCCC1` [DACOMITINIB ANHYDROUS], the Kd in test [1] was > 30 µM (inactive); in test [2], 0.168 µM (active); in test [3], > 30 µM (inactive); in test [4], > 30 µM (inactive).

As for `CC[C@@](C)(Nc1ccnc(-c2c[nH]c3ncccc23)n1)C(=O)NCC(F)(F)F` [DECERNOTINIB], the Kd in test [1] is > 30 µM (inactive); in test [2], > 30 µM (inactive); in test [3] it was > 30 µM (inactive); in test [4] it was 3.41 µM (active).

As for `O=C(NOC[C@H](O)CO)c1ccc(F)c(F)c1Nc1ccc(I)cc1F` [MIRDAMETINIB], the Kd in test [1], in test [2], in test [3] and in test [4] was > 30 µM (inactive) in each case.

Regarding `COc1cc2nccc(Oc3ccc(NC(=O)C4(C(=O)Nc5ccc(F)cc5)CC4)cc3)c2cc1OC` [CABOZANTINIB], the Kd in test [1], in test [2], in test [3] and in test [4] was > 30 µM (inactive) throughout.

For `NC[C@@](O)(c1ccc(Cl)cc1)c1ccc(-c2cn[nH]c2)cc1` [AT-13148], the Kd in test [1], in test [2], in test [3] and in test [4] was > 30 µM (inactive) throughout.
